From patent US12291513B2, “Pyridinium derivatives made by hydrothermal synthesis for use as anolytes in electrochemical cells” (Wisconsin Alumni Research Foundation, priority 2021, dated 2025)
Where two headings read alike, the source gives them in different places.

Assays:
[1] = Symmetric, volumetrically-unbalanced flow cell cycling; conditions: sixteen days (150 cycles) continuous charge-discharge, N2 glovebox, first redox process
Procedure: The RFB measurements were carried out in a custom-made zero-gap device previously reported by Li et al. (Li, W. et al., Chem 2018, 4 (11), 2644-2657; and Li, W. et al., Adv. Energy Mater. 2019, 9 (31), 1900918.) Both symmetric flow cell and RFB full cell measurements were conducted using a Bio-Logic SP-200 potentiostat at room temperature (˜20° C.). In symmetric cells, 0.1 M of active species in 1 M NaCl (pre-charged to 50% SOC of the first electron reduction using FcNCl as the counter cathode in bulk electrolysis) was utilized on both sides with the capacity limiting side (CLS) consisting of 5 mL of solution and the non-capacity limiting side (NCLS) consisting of 10 mL of solution separated by a Selemion AMV anion-exchange membrane (Asahi Glass Co.). The neat Dex-Vi full RFB cell cycling was performed using the product from the Dex-Vi synthesis directly without any purification. The neat product was diluted to roughly 0.1 M to pair with a 0.2 M BTMAP-Fc counter catholyte in excess capacity separated by an AMV membrane. Both the anolyte and catholyte were 5 mL in total volume with 0.5 M NaCl supporting electrolyte. […]

[2] = Cyclic voltammetry (formal potentials, Randles-Sevcik diffusion coefficients); assay type: physicochemical
Procedure: CV and EIS experiments were ran using a PalmSens4 potentiostat with the PSTrace software. Electrochemical experiments were performed in 1.0 M NaCl supporting electrolyte using 15 mM of active material at room temperature (18° C.). Formal potentials for the redox couples were estimated by taking the average potential between the cathodic and anodic peak. Diffusional behavior was investigated by varying the scan rate between 10-100 mV·s^−1 for the first electron reduction and 50-200 mV·s^−1 for the second electron reduction, and the diffusion constants of the reduced and oxidized states (D^R and D^O) were determined via the Randles-Sevcik equation assuming ideal reversible behavior (FIG. 12D). Potentiostatic EIS measurements were used for determination of a combined diffusional constant of the reduced and oxidized states (D^EIS) and of the standard electron kinetic rate constant (k^o). These EIS measurements were performed at the formal reduction potential (held for 30 seconds before measurement) in which the concentration of the two redox states at the electrode surface were assumed to be the same and equal to half of the initially prepared redox species concentration.
A glassy carbon working electrode (CH Instruments, 0.0707 cm^2), a saturated calomel reference electrode (SCE, CH Instruments, +0.241 V vs. SHE), and a platinum wire counter electrode were used for both CV and EIS measurements. The working electrode was polished with 1 μm, 0.3 μm, and 0.05 μm alumina slurry successively. All electrodes were rinsed with deionized water in between measurements.
CVs were taken at various scan rates in order to determine the diffusion coefficients via the Randles-Sevcik relation (Eqn. 1) where ip is the peak current in Amps, n is number of electrons transferred, F is Faraday's constant, A is electrode surface area in cm^2, C is the redox species concentration in mole·cm^−3, R is the ideal gas constant, T is temperature, D is the diffusion coefficient, and v is scan rate in V/s. The anodic peak current […] determines the diffusion coefficient of the reduced state (D^R) while the cathodic peak current (ip,a) determines the diffusion coefficient of the oxidized state (D^O). ip=0.4463n^3/2·F^3/2·A·C·R^−1/2·T^−1/2·D^1/2·v^1/2 Eqn. 1

[3] = Degradation kinetics in sodium hydroxide; conditions: one-and-one-half order overall
Excerpt: The chemical stability of the first redox processes of Dex-Vi was investigated using a symmetric, volumetrically-unbalanced flow cell inside an N2 glovebox.

Viscosity (rheometer) = assay type: physicochemical; conditions: for viscosity: pure water
Procedure: Viscosity measurements were carried out using an Ares G2 rheometer (TA Instruments) with an advanced Peltier system at 25° C.

Solubility in pure water = assay type: physicochemical; conditions: pure water, 18 °C, water, thermodynamic from solid
Procedure: A measured amount of Dex-Vi was partially dissolved in pure water. The solution was then centrifuged. The supernatant was decanted, and the volume was measured. The remainder of the solid was dried in a vacuum oven and weighed. Finally, the weight of the remaining Dex-Vi was subtracted from the initial added mass to obtain the amount dissolved in the supernatant, permitting calculation of the maximum soluble concentration.

Degradation in 1M KOH = assay type: physicochemical

Question: Which “decay in symmetric flow cell” value [1] does the source give for `C[N+](C)(C)CC(O)C[n+]1ccc(-c2cc[n+](CC(O)C[N+](C)(C)C)cc2)cc1` (stereo not drawn) [Dex-Vi, bis(3-trimethylammonio-2-hydroxy)propyl viologen tetrachloride] here?
Answer: no decay

Question: And the “first electron formal potential (E1^0)” value ([2]; 15 mM in 1.0 M NaCl, 18° C.)?
Answer: −0.322 V vs. SHE

Question: And the “E1^0” value ([2]; Table 1)?
Answer: −0.322 V vs. SHE

Question: What about the “E2^0” value ([2]; Table 1) of the same compound?
Answer: −0.699 V vs. SHE

Question: And the “reduced state diffusion coefficient (D1^R)” value ([2]; first redox state, 3+ species)?
Answer: 1.9×10^−6 cm^2·s^−1

Question: And the “oxidized state diffusion coefficient (D1^O)” value ([2]; first redox state, 4+ species)?
Answer: 2.3×10^−6 cm^2·s^−1

Question: And the “D2^O” value ([2]; second redox state)?
Answer: 4.0×10^−6 cm^2·s^−1

Question: And the “D2^R” value ([2]; second redox state)?
Answer: 3.1×10^−6 cm^2·s^−1

Question: What about the “second electron formal potential (E2^0)” value ([2]; vs. SHE, 15 mM in 1.0 M NaCl, 18° C.) of the same compound?
Answer: −0.699 V

Question: What about the “degradation rate constant k” value [3] of the same compound?
Answer: 2.3×10^−6 s^−1·M^−1/2

Question: What about the “Viscosity at 1M, 25° C.” value (Viscosity (rheometer); 1M, 25° C.) of the same compound?
Answer: 14.2 cP

Question: And the viscosity (Viscosity (rheometer); 0.25 M)?
Answer: 1.1 cP

Question: And the viscosity (Viscosity (rheometer); 0.50 M)?
Answer: 1.8 cP

Question: And the viscosity (Viscosity (rheometer); 1.0 M)?
Answer: 4.7 cP

Question: What about the viscosity (Viscosity (rheometer); 1.5 M) of the same compound?
Answer: 50 cP

Question: And the solubility (Solubility in pure water; Example 2, read-out: Water Solubility)?
Answer: 1800 mM

Question: And the solubility (Solubility in pure water; room temperature (~18° C.), read-out: maximum solubility)?
Answer: ~2000 mM

Question: What about the “Degradation in 1M KOH, k” value (Degradation in 1M KOH) of the same compound?
Answer: 3.22e-06 s⁻¹
